In patent US10696675B2, “Imidazopyridopyrimidine derivative compound and use thereof” (HANMI PHARMACEUTICAL CO., LTD., priority 2016, dated 2020):

Experiments:
FGFR4 = FGFR4 (Homo sapiens, UniProt P22455); experiment: Activity inhibition for FGFR4 kinase (Z′-LYTE biochemical assay, Invitrogen SelectScreen); settings: ATP concentration based on Km
Method: (§1) For the synthesized compounds, inhibitory activity for FGFR1, 2, 3, 4 kinase was measured. Activity measurement was carried out by requesting to SelectScreen® Biochemical Kinase Profiling Service of Invitrogen. A Z′-LYTE® biochemical assay method was used, and the ATP concentration was set based on the Km value.

HUH7 cells = experiment: Proliferation inhibitory effect for HUH7 cells (SRB assay); assay type: cell-based; settings: Homo sapiens, Huh-7, 72 hours, GI50, read-out: IC50 HUH7 Cell Line
Method: Test Example 2: Measuring Inhibitory Effect of FGFR Inhibitor Using Cell Line
The test was carried out for identifying a proliferation inhibitory effect of the compound of the present invention for HUH7 cells. HUH7 cell lines were counted and 5.0×10^3 cells were inoculated per well in a 96 well plate. After the innoculation, the cells were cultured for 24 hours in a 37 □ and 5% carbon dioxide (CO2) incubator. On the next day, the synthesized compounds were each diluted and prepared. The diluted compounds were introduced to the cell lines inoculated the previous day by concentrations, and reacted for 72 hours in a 37 □ and 5% carbon dioxide (CO2) incubator. However, to a positive control to which the compound was not added, 0.1% dimethyl sulfoxide (DMSO) diluted with a medium was introduced. To a negative control plate, a trichloroacetic acid (TCA) solution was introduced, and fixed at 4 □. After reacting for 72 hours, the medium including the compound was removed, a TCA solution was added thereto, and the cells were fixed for 30 minutes to 60 minutes at 4 □. The TCA solution was discarded, the plate was washed off with distilled water and then dried in the air. A 0.4% sulforhodamin B (SRB) solution was added to the plate and dyed for 10 minutes at room temperature. The plate was washed off with tap water including a 1% acetic acid solution, and then dried in the air. A 10 mM Trizma base solution was added to dissolve the solid SRB. Using a microplate reader, optical density (O.D. value) was measured at 540 nm. A GI50 value of each of the compounds was calculated using GraphPad Prism V6.0 Software.

FGFR1 = FGFR1 (Homo sapiens, UniProt P11362); experiment: Activity inhibition for FGFR1 kinase (Z′-LYTE biochemical assay, Invitrogen SelectScreen); settings: ATP concentration based on Km
Chain of FGFR1 (P11362 22-822): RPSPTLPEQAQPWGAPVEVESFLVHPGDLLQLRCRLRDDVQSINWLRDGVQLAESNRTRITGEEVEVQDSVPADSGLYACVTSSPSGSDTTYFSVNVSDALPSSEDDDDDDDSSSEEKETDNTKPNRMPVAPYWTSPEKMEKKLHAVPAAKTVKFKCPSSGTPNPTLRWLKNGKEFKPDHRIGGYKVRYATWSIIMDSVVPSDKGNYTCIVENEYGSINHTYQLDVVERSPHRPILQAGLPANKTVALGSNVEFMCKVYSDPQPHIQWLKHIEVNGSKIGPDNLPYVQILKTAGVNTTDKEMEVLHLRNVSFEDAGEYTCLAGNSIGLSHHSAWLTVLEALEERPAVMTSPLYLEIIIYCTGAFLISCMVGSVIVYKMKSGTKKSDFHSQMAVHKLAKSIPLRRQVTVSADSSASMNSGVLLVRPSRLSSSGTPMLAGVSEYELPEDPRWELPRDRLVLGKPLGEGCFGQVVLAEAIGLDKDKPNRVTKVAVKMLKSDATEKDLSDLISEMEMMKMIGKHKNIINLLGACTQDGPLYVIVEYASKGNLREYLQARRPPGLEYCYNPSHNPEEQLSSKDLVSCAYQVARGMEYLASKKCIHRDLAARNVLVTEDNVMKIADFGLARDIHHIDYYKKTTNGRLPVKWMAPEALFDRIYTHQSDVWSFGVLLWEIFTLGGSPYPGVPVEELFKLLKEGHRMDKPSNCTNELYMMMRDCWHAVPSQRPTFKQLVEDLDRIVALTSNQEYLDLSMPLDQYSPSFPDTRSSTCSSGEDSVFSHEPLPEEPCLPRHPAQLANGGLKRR
Method: as §1

Chain of FGFR4 (P22455 22-802): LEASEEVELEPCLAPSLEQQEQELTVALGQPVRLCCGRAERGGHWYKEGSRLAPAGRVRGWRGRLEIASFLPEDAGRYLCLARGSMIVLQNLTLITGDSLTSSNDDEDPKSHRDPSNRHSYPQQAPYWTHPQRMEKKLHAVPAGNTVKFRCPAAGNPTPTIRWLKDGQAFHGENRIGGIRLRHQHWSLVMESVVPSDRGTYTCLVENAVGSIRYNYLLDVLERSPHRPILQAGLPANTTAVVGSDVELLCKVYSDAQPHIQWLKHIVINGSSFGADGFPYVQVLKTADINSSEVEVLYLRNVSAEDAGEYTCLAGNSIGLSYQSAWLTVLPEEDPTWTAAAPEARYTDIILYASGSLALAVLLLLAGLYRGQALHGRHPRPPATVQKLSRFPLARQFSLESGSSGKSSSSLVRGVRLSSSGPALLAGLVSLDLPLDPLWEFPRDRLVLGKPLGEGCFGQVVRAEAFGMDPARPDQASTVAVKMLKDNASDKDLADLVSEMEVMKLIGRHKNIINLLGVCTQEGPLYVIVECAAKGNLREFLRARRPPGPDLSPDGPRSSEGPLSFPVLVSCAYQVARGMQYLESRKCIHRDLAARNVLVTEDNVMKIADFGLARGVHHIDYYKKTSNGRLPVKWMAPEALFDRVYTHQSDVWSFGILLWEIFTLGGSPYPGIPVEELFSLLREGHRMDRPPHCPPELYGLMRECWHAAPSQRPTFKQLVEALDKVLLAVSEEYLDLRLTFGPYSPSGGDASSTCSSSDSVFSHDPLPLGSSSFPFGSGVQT

Row | SMILES | IC50 (FGFR4) | IC50 (HUH7 cells) | IC50 (FGFR1)
1 | C=CC(=O)Nc1cc(O[C@@H]2CCOC2)ccc1Nc1ncc2cc(-c3c(Cl)c(OC)cc(OC)c3Cl)c3nccn3c2n1 [compound 53] | < 50 nM | < 50 nM | –
2 | C=CC(=O)Nc1cccc(OC)c1Nc1ncc2cc(-c3c(Cl)c(OC)cc(OC)c3Cl)c3nccn3c2n1 [compound 11] | < 50 nM | 50 to 500 nM | 50 to 500 nM
3 | C=CC(=O)Nc1cc(N2CC(OC)C2)ccc1Nc1ncc2cc(-c3c(Cl)c(OC)cc(OC)c3Cl)c3nccn3c2n1 [compound 37] | < 50 nM | < 50 nM | < 50 nM
4 | C=CC(=O)Nc1cc(N2CC[C@H](N(C)C)C2)ccc1Nc1ncc2cc(-c3c(Cl)c(OC)cc(OC)c3Cl)c3nccn3c2n1 [compound 48] | < 50 nM | < 50 nM | < 50 nM
5 | C=CC(=O)Nc1cc(OC2CCCC2)ccc1Nc1ncc2cc(-c3c(Cl)c(OC)cc(OC)c3Cl)c3nccn3c2n1 [compound 54] | 50 to 500 nM | 50 to 500 nM | > 500 nM
6 | C=CC(=O)Nc1cc(N2CCS(=O)(=O)CC2)ccc1Nc1ncc2cc(-c3c(Cl)c(OC)cc(OC)c3Cl)c3nccn3c2n1 [compound 36] | < 50 nM | < 50 nM | < 50 nM
7 | C=CC(=O)Nc1cc(S(C)(=O)=O)ccc1Nc1ncc2cc(-c3c(Cl)c(OC)cc(OC)c3Cl)c3nccn3c2n1 [compound 18] | < 50 nM | 50 to 500 nM | < 50 nM
8 | C=CC(=O)Nc1cc(N2CCN(C)CC2)ccc1Nc1ncc2cc(-c3c(Cl)c(OC)cc(OC)c3Cl)c3nccn3c2n1 [compound 52] | < 50 nM | < 50 nM | < 50 nM
9 | C=CC(=O)Nc1cccc(F)c1Nc1ncc2cc(-c3c(F)c(OC)cc(OC)c3F)c3nccn3c2n1 [Synthesis Example 72, N-(2-((6-(2,6-difluoro-3,5-dimethoxyphenyl)imidazo[1′,2′:1,6]pyrido[2,3-d]pyrimidin-2-yl)amino)-3-fluorophenyl)acrylamide] | < 50 nM | < 50 nM | > 500 nM
10 | C=CC(=O)Nc1cc(N(C)CCOC)ccc1Nc1ncc2cc(-c3c(Cl)c(OC)cc(OC)c3Cl)c3nccn3c2n1 [compound 25] | < 50 nM | < 50 nM | < 50 nM
11 | C=CC(=O)Nc1cc(N2CCN(S(C)(=O)=O)CC2)ccc1Nc1ncc2cc(-c3c(Cl)c(OC)cc(OC)c3Cl)c3nccn3c2n1 [compound 35] | < 50 nM | < 50 nM | < 50 nM
12 | C=CC(=O)Nc1cc(N2CCN(CC)CC2)ccc1Nc1ncc2cc(-c3c(Cl)c(OC)cc(OC)c3Cl)c3nccn3c2n1 [compound 31] | < 50 nM | < 50 nM | –
13 | C=CC(=O)Nc1cc(N2CCOCC2)ccc1Nc1ncc2cc(-c3c(Cl)c(OC)cc(OC)c3Cl)c3nccn3c2n1 [compound 32] | < 50 nM | < 50 nM | –
14 | C=CC(=O)Nc1cc(N2CCOCC2)cc(OC)c1Nc1ncc2cc(-c3c(Cl)c(OC)cc(OC)c3Cl)c3nccn3c2n1 [compound 65] | – | 50 to 500 nM | –
15 | C=CC(=O)Nc1cc(N2CCOCC2)cc(Cl)c1Nc1ncc2cc(-c3c(Cl)c(OC)cc(OC)c3Cl)c3nccn3c2n1 [compound 68] | – | > 500 nM | –
16 | C=CC(=O)Nc1cc(N2CCOCC2)ccc1Nc1ncc2cc(-c3c(F)c(OC)cc(OC)c3F)c3nccn3c2n1 [compound 73] | – | < 50 nM | –
17 | C=CC(=O)Nc1cc(N2CCC(OC)CC2)ccc1Nc1ncc2cc(-c3c(Cl)c(OC)cc(OC)c3Cl)c3nccn3c2n1 [compound 40] | – | < 50 nM | –
18 | C=CC(=O)Nc1cc(CC)ccc1Nc1ncc2cc(-c3c(Cl)c(OC)cc(OC)c3Cl)c3nccn3c2n1 [compound 20] | – | 50 to 500 nM | –
19 | C=CC(=O)Nc1cc(N2CCN(CC3CC3)CC2)ccc1Nc1ncc2cc(-c3c(Cl)c(OC)cc(OC)c3Cl)c3nccn3c2n1 [compound 43] | – | < 50 nM | –
20 | C=CC(=O)Nc1cc(N2C[C@@H](C)O[C@@H](C)C2)ccc1Nc1cc2c(cn1)cc(-c1c(Cl)c(OC)cc(OC)c1Cl)c1nccn12 [compound 84] | – | < 50 nM | –
21 | C=CC(=O)Nc1cc(F)c(F)cc1Nc1ncc2cc(-c3c(F)c(OC)cc(OC)c3F)c3nccn3c2n1 [compound 77] | – | 50 to 500 nM | –
